Tests used:
human PCSK9 locus [1] = experiment: Secreted PCSK9 ELISA in Huh7 cells transfected with mRNA and gRNA; format: cell-based; details: for normalized secreted PCSK9 level: days 6, 18, 36
Description: The following three human hepatocyte cancer cell lines were used in this experiment: HepG2 cells, Hep3B cells, and Huh7 cells. ~15,000 cells of each cell line were seeded in each well of a 96-well plate. The next day, seeded cells were transfected with mRNA encoding a catalytically-active CasX 676, dXR1, or LTRP5-ADD-ZIM3 and a gRNA with scaffold 316 and spacer targeting either the B2M or PCSK9 locus (see Table 12 for specific spacers and sequences). Media supernatant was harvested at 4 days post-transfection to assess level of PCSK9 secretion by ELISA, and levels of PCSK9 secretion were normalized to total cell count, as illustrated in FIGS. 2A-2C. Culturing of treated Huh7 cells continued, and media supernatant was harvested at 14 and 27 days post-transfection for measuring PCSK9 secretion by ELISA. As an additional experimental control, PCSK9 secretion was also measured in the media supernatant harvested from wells containing untreated, naïve cells.
To assess PCSK9 secretion, seeded Huh7 cells were transfected with mRNA encoding a catalytically-active CasX 676, dXR1, or LTRP5-ADD-ZIM3 and a gRNA with scaffold 316 and a spacer targeting either the B2M or PCSK9 locus. Media supernatant was harvested at 6, 18, and 36 days post-transfection to assess level of PCSK9 secretion by ELISA. Levels of PCSK9 secretion were normalized to total cell count. As an additional control, PCSK9 secretion was also measured in the media supernatant harvested from wells containing untreated, naïve cells.

mouse PCSK9 locus = experiment: Intracellular PCSK9 staining by flow cytometry in Hepa1-6 cells lipofected with mRNA and PCSK9-targeting gRNA; format: cell-based
Description: Transfection of mRNA and gRNA into Hepa1-6 cells and intracellular PCSK9 staining were performed as described in Example 6. Briefly, each well of seeded Hepa1-6 cells was transfected with 300 ng of mRNA encoding LTRP5-ZIM3 or LTRP5-ADD-ZIM3 and 150 ng of PCSK9-targeting gRNA with spacer 27.88 or 27.94. Intracellular levels of PCSK9 protein were measured at various timepoints, up to day 53 post-transfection using an intracellular staining protocol as described earlier in Example 6. A non-targeting gRNA was used as an experimental control.
Seeded Hepa1-6 cells treated with the NATE™ inhibitor were lipofected with 300 ng of mRNA encoding dXR1 or LTRP1-ZIM3 (Table 36) and 150 ng of a PCSK9-targeting gRNA (Table 37). Seven different gRNAs with spacers spanning the promoter region of the mouse PCSK9 locus were tested, in addition to a sequence complementary to the human PCSK9 gene that served as the non-targeting control (Table 37). Cells were harvested at 6, 13, and 25 days after transfection to measure intracellular levels of the PCSK9 protein using an intracellular flow cytometry staining protocol. Briefly, cells were fixed using 4% paraformaldehyde in PBS, permeabilized, and stained using a mouse anti-PCSK9 primary antibody (R&D Systems), followed by a fluorescent goat anti-mouse IgG secondary antibody (Thermo Fisher). Fluorescence levels were measured using the Attune™ NxT flow cytometer, and data were analyzed using the FlowJo™ software. Cell populations were gated using the non-targeting gRNA as a negative control.
Seeded Hepa1-6 cells treated with the NATE™ inhibitor were lipofected with 300 ng of mRNA encoding LTRP1-ZIM3, LTRP5-ZIM3, catalytically-active CasX 491, or dCas9-ZNF10-DNMT3A/3L, and 150 ng of PCSK9-targeting gRNA (Table 37). Intracellular levels of PCSK9 protein were measured at day 7, 14, 21, 36, and 71 days post-transfection using an intracellular staining protocol as described for experiment #1.

B2M gene = experiment: B2M reactivation by DNMT1 inhibitor 5-azadC in transfected HEK293T cells cultured for 58 days; format: cell-based, human; details: HEK293T transfected with construct + B2M-targeting gRNA; 0 to 20 μM 5-azadC
Description: LTRP configuration 5 containing the ZIM3-KRAB domain, which was generated as described in Example 1, and CasX variant 491 were used in this experiment. A B2M-targeting gRNA with scaffold 174 containing spacer 7.37 (SEQ ID NO: 1904) or a non-targeting gRNA containing spacer 0.0 (SEQ ID NO: 1906) were used in this experiment.

PCSK9 mRNA = PCSK9 mRNA RT-qPCR dose response (IC50, IC90, Emax) in primary human hepatocytes treated with LNPs; format: cell-based; details: day 5
Description: Two lots (lot #271 and lot #31) of primary human hepatocytes (Lonza Biologics) were plated at density of 65K cells/well. Twenty-four hours later, plates were stamped with the indicated total encapsulated RNA dose of single formulations ALC-0315 LNP (1:1 ratio, pre-incubated with human serum overnight) at the indicated dose in triplicate wells for each condition. Doses tested for each mRNA:gRNA pair (Table 60) were 2400, 800, 270, 90, 30, 10, 0.1, and 0.01 ng/well total encapsulated RNA.
For rounds 1 and 2, cells were immediately lysed in 100 uL DNA RNA shield™ and stored at […] after the day 5 media collection.
Extracted mRNA was processed and analyzed by RT-qPCR. Measurement ofPCSK9 mRNA expression is performed using a single-step RT-qPCR approach. 50 uL lysate was used to extract total RNA using Zymo 96 RNA extraction kits. Total RNA was then reverse transcribed into cDNA and PCSK9 transcript quantified in reference to a GAPDH endogenous control by quantitative PCR using TaqMan probes. Percent change in mRNA was calculated by comparing to samples treated with a non-targeting sequence.
(§1) The ability of pairs of mRNA:gRNA comprising scaffold 316 and an PCSK9-targeting sequence to reduce secretion of PCSK9 and PCSK9 mRNA reduction was assessed. […]

human PCSK9 locus [2] = experiment: Secreted PCSK9 dose response (IC50, IC90, Emax) in primary human hepatocytes treated with LNPs; format: cell-based; details: day 5
Description: PCSK9 knockdown in primary human hepatocytes, provided an experimental basis for lipofection of gRNA comprising one of the four top editing targeting sequences (Table 59) into PHH cells for assessment of PCSK9 secretion and mRNA reduction. Dose response curves were generated from two lots of PHH cells with three rounds of triplicate wells for each condition. The highest tested dose, 2400 ng/well total encapsulated RNA, was used to measure mRNA expression changes between treated and naïve cells via RNA-seq.
Two lots (lot #271 and lot #31) of primary human hepatocytes (Lonza Biologics) were plated at density of 65K cells/well. Twenty-four hours later, plates were stamped with the indicated total encapsulated RNA dose of single formulations ALC-0315 LNP (1:1 ratio, pre-incubated with human serum overnight) at the indicated dose in triplicate wells for each condition. Doses tested for each mRNA:gRNA pair (Table 60) were 2400, 800, 270, 90, 30, 10, 0.1, and 0.01 ng/well total encapsulated RNA. […]
Secreted PCSK9 levels in the media supernatant were analyzed using the BioLegend® ELISA MAX™ kit following the manufacturer's instructions.
as §1

## dXR1: dCasX fused to ZIM3-KRAB; protein SEQ ID NO 2008
Human PCSK9 locus [1]; Huh7, spacer 6.138, days 4, 14, 27
  repression of PCSK9 secretion relative to naïve control at day 4: initial strong repression at day 4, this repressive effect was transient
Human PCSK9 locus [1]; Huh7, spacer 6.138
  normalized secreted PCSK9 level: transient repression
Human PCSK9 locus [1]; Huh7 compared with HepG2 and Hep3B cells, 4 days post-transfection
  knockdown of PCSK9 secretion (normalized to total cell count): most efficient knockdown of PCSK9 secretion
Mouse PCSK9 locus; day 6, e.g. spacers 27.92 and 27.100
  degree of PCSK9 repression compared with LTRP1-ZIM3: the degree of repression was less substantial when paired with certain spacers
Mouse PCSK9 locus; days 6, 13, 25
  persistence of PCSK9 repression: transient repression

## Nc1ncn([C@H]2C[C@H](O)[C@@H](CO)O2)c(=O)n1 [5-azadC, 5-aza-2′-deoxycytidine]
B2M gene
  reactivation of the B2M gene upon 5-azadC treatment: resulted in a reactivation of the B2Mgene

## TG-06-154: NHP-conserved TSS-proximal TTC spacer targeting the human PCSK9 locus (Table 40) (guide AGGGUGUGGGUGCUUGACGC; spacer within gRNA, v1 profile: 2'-OMe and phosphorothioate on first and last three gRNA nucleotides, further chemistry not given here)
PCSK9 mRNA
  potency in reducing PCSK9 mRNA levels: the most potent LTRP spacer
Human PCSK9 locus [2]
  potency in reducing secreted PCSK9 protein: the most potent LTRP spacer

## spacer 27.94: gRNA spacer targeting the mouse PCSK9 locus, SEQ ID NO 2014 (guide CCCCUCUUAAUCCCCACUCC; listed as RNA, chemistry not given here)
Mouse PCSK9 locus; paired with LTRP5-ZIM3 or LTRP5-ADD-ZIM3 mRNA, day 53
  durability of PCSK9 repression: more durable repression than use of spacer 27.88

## TG-06-352: spacer targeting human PCSK9, positioned beyond the 1100 bp threshold window (guide UCCCUCACCAAUUACCCCUC; spacer within gRNA, v1 profile: 2'-OMe and phosphorothioate on first and last three gRNA nucleotides, further chemistry not given here)
Human PCSK9 locus [1]; Huh7, spacer paired with LTRP5-ADD-ZIM3, compared with spacer 6.1 paired with CasX 676 and controls
  normalized secreted PCSK9 level: effective repression

Source: patent publication US20260240958A1, “REPRESSOR FUSION PROTEIN SYSTEMS” (Scribe Therapeutics Inc., priority 2023, published 2026)
